Source: PubChem BioAssay AID248 (DTP/NCI, 2004)
Where “and” joins values, the source holds several entries; their conditions need not be identical. Equal entries are not always repeated. Toxic doses and inconclusive results are not listed.

Tested on: L1210 leukemia ip in BDF1 mice, survival T/C
Assay: NCI In Vivo Anticancer Drug Screen. Data for tumor model L1210 Leukemia (intraperitoneal) in B6D2F1 (BDF1) mice
Conditions: endpoint: mean survival time, higher = longer survival
In short: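 Tumor cells were implanted, animals were treated, and survival was followed. The result divides the treated measurement by the vehicle-control measurement.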

[1] = dose: 200.0 mg/kg/injection, schedule: Q01DX001 (ip), vehicle: saline
[2] = dose: 100.0 mg/kg/injection, schedule: Q04DX003 (ip), vehicle: saline with Tween-80
[3] = dose: 200.0 mg/kg/injection, schedule: Q04DX003 (ip), vehicle: saline with Tween-80
[4] = dose: 100.0 mg/kg/injection, schedule: Q01DX009 (ip), vehicle: Klucel (hydroxypropylcellulose) (HPC)
[5] = dose: 200.0 mg/kg/injection, schedule: Q01DX009 (ip), vehicle: Klucel (hydroxypropylcellulose) (HPC)
[6] = dose: 100.0 mg/kg/injection, schedule: Q01DX001 (ip), vehicle: carboxymethylcellulose (CMC)
[7] = dose: 200.0 mg/kg/injection, schedule: Q01DX001 (ip), vehicle: carboxymethylcellulose (CMC)
[8] = dose: 400.0 mg/kg/injection, schedule: Q01DX001 (ip), vehicle: carboxymethylcellulose (CMC)

O=NN(CCCl)C(=O)NC12CC3CC(CC(C3)C1)C2
T/C (dose: 62.0 mg/kg/injection, schedule: Q01DX001 (ip), vehicle: carboxymethylcellulose (CMC)): 270 % of control | T/C (dose: 93.0 mg/kg/injection, schedule: Q01DX001 (ip), vehicle: carboxymethylcellulose (CMC)): 250 % of control | T/C (dose: 125.0 mg/kg/injection, schedule: Q01DX001 (ip), vehicle: carboxymethylcellulose (CMC)): 255 % of control | T/C (dose: 187.0 mg/kg/injection, schedule: Q01DX001 (ip), vehicle: carboxymethylcellulose (CMC)): 182 % of control

CCN(CCOC(=O)Nc1ccccc1F)c1ccccc1
T/C (dose: 100.0 mg/kg/injection, schedule: Q01DX009 (ip), vehicle: saline with Tween-80): 98 % of control | T/C (dose: 200.0 mg/kg/injection, schedule: Q01DX009 (ip), vehicle: saline with Tween-80): 115 % of control | T/C (dose: 400.0 mg/kg/injection, schedule: Q01DX009 (ip), vehicle: saline with Tween-80): 112 % of control

O=C(CCCC(=O)N/N=C/c1c2ccccc2cc2ccccc12)N/N=C/c1c2ccccc2cc2ccccc12
T/C (dose: 50.0 mg/kg/injection, schedule: Q01DX001 (ip), vehicle: saline): 100 % of control | T/C (dose: 100.0 mg/kg/injection, schedule: Q01DX001 (ip), vehicle: saline): 102 % of control | T/C [1]: 96 % of control | T/C (dose: 400.0 mg/kg/injection, schedule: Q01DX001 (ip), vehicle: saline): 96 % of control

CCCCOCN1COCC1(C)C
T/C [2]: 108 % of control | T/C [3]: 106 % of control

Nc1nc(CNc2ccccc2)nc(Nc2ccccc2)n1
T/C [2]: 89 % of control | T/C [3]: 101 % of control | T/C (dose: 400.0 mg/kg/injection, schedule: Q04DX003 (ip), vehicle: saline with Tween-80): 89 % of control

CCCCCCCCC(=O)NCc1ccco1
T/C [4]: 92 % of control | T/C [5]: 91 % of control | T/C (dose: 400.0 mg/kg/injection, schedule: Q01DX009 (ip), vehicle: Klucel (hydroxypropylcellulose) (HPC)): 94 % of control

C(=P(c1ccccc1)(c1ccccc1)c1ccccc1)[P+](c1ccccc1)(c1ccccc1)c1ccccc1
T/C (dose: 0.78 mg/kg/injection, schedule: Q01DX009 (ip), vehicle: saline): 102 % of control and 109 % of control | T/C (dose: 1.56 mg/kg/injection, schedule: Q01DX009 (ip), vehicle: saline): 98 % of control and 88 % of control | T/C (dose: 3.12 mg/kg/injection, schedule: Q01DX009 (ip), vehicle: saline): 100 % of control | T/C (dose: 3.13 mg/kg/injection, schedule: Q01DX001 (ip), vehicle: saline): 90 % of control | T/C (dose: 3.13 mg/kg/injection, schedule: Q04DX002 (ip), vehicle: saline): 97 % of control | T/C (dose: 3.13 mg/kg/injection, schedule: Q04DX003 (ip), vehicle: saline): 102 % of control | T/C (dose: 6.0 mg/kg/injection, schedule: Q01DX009 (ip), vehicle: saline): 106 % of control | T/C (dose: 6.25 mg/kg/injection, schedule: Q01DX001 (ip), vehicle: saline): 100 % of control | T/C (dose: 6.25 mg/kg/injection, schedule: Q01DX009 (ip), vehicle: saline): 117 % of control | T/C (dose: 6.25 mg/kg/injection, schedule: Q04DX002 (ip), vehicle: saline): 96 % of control and 100 % of control | T/C (dose: 6.25 mg/kg/injection, schedule: Q04DX003 (ip), vehicle: saline): 106 % of control | T/C (dose: 9.3 mg/kg/injection, schedule: Q01DX009 (ip), vehicle: saline): 95 % of control | T/C (dose: 12.5 mg/kg/injection, schedule: Q01DX001 (ip), vehicle: saline): 97 % of control | T/C (dose: 12.5 mg/kg/injection, schedule: Q01DX009 (ip), vehicle: saline): 115 % of control and 117 % of control | T/C (dose: 12.5 mg/kg/injection, schedule: Q04DX002 (ip), vehicle: saline): 97 % of control and 99 % of control | T/C (dose: 12.5 mg/kg/injection, schedule: Q04DX003 (ip), vehicle: saline): 101 % of control | T/C (dose: 13.0 mg/kg/injection, schedule: Q01DX009 (ip), vehicle: saline): 93 % of control | T/C (dose: 100.0 mg/kg/injection, schedule: Q04DX002 (ip), vehicle: saline): 90 % of control | T/C (dose: 200.0 mg/kg/injection, schedule: Q04DX002 (ip), vehicle: saline): 93 % of control

NC(=O)c1cc(Cl)cc(N)c1Cl
T/C (dose: 100.0 mg/kg/injection, schedule: Q01DX001 (ip), vehicle: saline with Tween-80): 107 % of control | T/C (dose: 200.0 mg/kg/injection, schedule: Q01DX001 (ip), vehicle: saline with Tween-80): 104 % of control | T/C (dose: 400.0 mg/kg/injection, schedule: Q01DX001 (ip), vehicle: saline with Tween-80): 117 % of control

CCOC(=O)CCc1c(C(=O)OCC)[nH]c(C)c1C(=O)OC(C)(C)C
T/C (dose: 100.0 mg/kg/injection, schedule: Q01DX001 (ip), vehicle: Klucel (hydroxypropylcellulose) (HPC)): 105 % of control | T/C (dose: 200.0 mg/kg/injection, schedule: Q01DX001 (ip), vehicle: Klucel (hydroxypropylcellulose) (HPC)): 124 % of control | T/C (dose: 400.0 mg/kg/injection, schedule: Q01DX001 (ip), vehicle: Klucel (hydroxypropylcellulose) (HPC)): 95 % of control

CC(CC(=O)c1ccc(F)cc1)N1CCN(c2ccccc2)CC1 (stereo unspecified)
T/C [6]: 103 % of control | T/C [7]: 90 % of control | T/C [8]: 90 % of control

CC(=O)OCC1OC(Oc2ncc(C)c(=O)[nH]2)C(Nc2ccc([N+](=O)[O-])cc2[N+](=O)[O-])C(OC(C)=O)C1OC(C)=O (stereo unspecified)
T/C (dose: 50.0 mg/kg/injection, schedule: Q01DX001 (ip), vehicle: carboxymethylcellulose (CMC)): 100 % of control | T/C [6]: 97 % of control | T/C [7]: 103 % of control | T/C [8]: 92 % of control

Cc1cc(NC(=O)Nc2ccc(C3=NCCN3)cc2)ccc1NC(=O)Nc1ccc(C2=NCCN2)cc1
T/C (dose: 62.0 mg/kg/injection, schedule: Q01DX Z (ip), vehicle: carboxymethylcellulose (CMC)): 124 % of control | T/C (dose: 250.0 mg/kg/injection, schedule: Q01DX Z (ip), vehicle: carboxymethylcellulose (CMC)): 151 % of control

CC(=O)OC1CCC(NC(=O)N(CCF)N=O)CC1 (stereo unspecified)
T/C (dose: 20.0 mg/kg/injection, schedule: Q01DX001 (ip), vehicle: other): 298 % of control | T/C (dose: 40.0 mg/kg/injection, schedule: Q01DX001 (ip), vehicle: other): 333 % of control

Nc1ccccc1/C=C(\C(=O)O)c1cccc(Cl)c1
T/C (dose: 100.0 mg/kg/injection, schedule: Q04DX003 (ip), vehicle: Klucel (hydroxypropylcellulose) (HPC)): 99 % of control | T/C (dose: 200.0 mg/kg/injection, schedule: Q04DX003 (ip), vehicle: Klucel (hydroxypropylcellulose) (HPC)): 101 % of control | T/C (dose: 400.0 mg/kg/injection, schedule: Q04DX003 (ip), vehicle: Klucel (hydroxypropylcellulose) (HPC)): 108 % of control

O=C(NCCCN1CC1)C(=O)NCCCN1CC1
T/C (dose: 1.5 mg/kg/injection, schedule: Q04DX003 (ip), vehicle: Klucel (hydroxypropylcellulose) (HPC)): 121 % of control | T/C (dose: 2.3 mg/kg/injection, schedule: Q04DX003 (ip), vehicle: Klucel (hydroxypropylcellulose) (HPC)): 110 % of control | T/C (dose: 3.12 mg/kg/injection, schedule: Q04DX003 (ip), vehicle: Klucel (hydroxypropylcellulose) (HPC)): 112 % of control | T/C (dose: 5.3 mg/kg/injection, schedule: Q04DX003 (ip), vehicle: Klucel (hydroxypropylcellulose) (HPC)): 166 % of control | T/C (dose: 8.0 mg/kg/injection, schedule: Q04DX003 (ip), vehicle: Klucel (hydroxypropylcellulose) (HPC)): 173 % of control | T/C (dose: 12.0 mg/kg/injection, schedule: Q04DX003 (ip), vehicle: Klucel (hydroxypropylcellulose) (HPC)): 215 % of control | T/C (dose: 12.5 mg/kg/injection, schedule: Q04DX003 (ip), vehicle: Klucel (hydroxypropylcellulose) (HPC)): 180 % of control | T/C (dose: 18.0 mg/kg/injection, schedule: Q04DX003 (ip), vehicle: Klucel (hydroxypropylcellulose) (HPC)): 183 % of control

ClCCN(CCCl)CCCNc1cc(-c2ccc(Cl)cc2)nc2cc(Cl)ccc12
T/C (dose: 5.0 mg/kg/injection, schedule: Q01DX001 (ip), vehicle: saline): 101 % of control | T/C (dose: 10.0 mg/kg/injection, schedule: Q01DX001 (ip), vehicle: saline): 101 % of control | T/C (dose: 20.0 mg/kg/injection, schedule: Q01DX001 (ip), vehicle: saline): 109 % of control | T/C (dose: 40.0 mg/kg/injection, schedule: Q01DX001 (ip), vehicle: saline): 104 % of control | T/C (dose: 80.0 mg/kg/injection, schedule: Q01DX001 (ip), vehicle: saline): 92 % of control | T/C [1]: 106 % of control

Cc1ccc([N+](=O)[O-])cc1NC(=O)Nc1ccc(CCO)cc1
T/C [4]: 90 % of control | T/C [5]: 93 % of control

C=CCC(C)/C(C)=C(/C#N)C(=O)OCC (stereo unspecified)
T/C (dose: 75.0 mg/kg/injection, schedule: Q01DX001 (ip), vehicle: other): 107 % of control | T/C (dose: 150.0 mg/kg/injection, schedule: Q01DX001 (ip), vehicle: other): 100 % of control
